The subject of one experiment is THP-1 cells. Briefly: Protein analysis of PMA-differentiated THP-1 cells (Western blot). Type of experiment: cell-based, human. As to conditions: for GSDMD cleavage / caspase-1 processing to p10 fragment / vimentin and GSDMD protein levels: 1 h pretreatment before 40 nM PMA; for GSDMD cleavage / caspase-1 processing to p10 fragment: BAPTA 10 μM, calpeptin 100 μM; for caspase-1 processing to p10 fragment / vimentin and GSDMD protein levels: Cl-amidine 25 μM, Z-DEVD-FMK 10 μM, VX-765 10 μM. How it is done:
Low-passage THP-1 cells were seeded into 12-well plates and treated with increasing concentrations of phorbol 12-myristate 13-acetate (PMA) ranging from 1 nM to 100 nM. The cells were incubated for 24 h to allow adherence and differentiation. Following incubation, the cells were lysed, and the lysates were subjected to SDS-PAGE (200 V, 30 min) and Western blot analysis. The expression and cleavage of vimentin, gasdermin D (GSDMD), NLRP3, and caspase-1 were analyzed using specific primary antibodies (1:500–1:1,000), followed by incubation with an antirabbit secondary antibody conjugated to Alexa Fluor 800 (1:10,000). Fluorescence signals were detected using an Azure Biosystems Sapphire RGB-NIR biomolecular imager. Ponceau S staining was used as a loading control to ensure equal protein loading in each lane. In a subsequent experiment, THP-1 cells were pretreated with specific inhibitors for 1 h prior to PMA-induced differentiation (40 nM PMA). The inhibitors used were: BAPTA (10 μM, calcium chelator), calpeptin (100 μM, calpain inhibitor), 4-bisindolylmaleimide (25 μM, PKC inhibitor), N-α-benzoyl-N5-(2-chloro-1-iminoethyl)-L-Orn amide or Cl-amidine (25 μM, pan PAD inhibitor, PADi), Z-DEVD-FMK (10 μM, caspase-3 inhibitor), and VX-765 (10 μM, caspase-1 inhibitor). After PMA treatment, the cells were lysed, and the lysates were processed for SDS-PAGE (200 V, 30 min) and Western blotting. Protein detection and visualization were performed in the same manner as in the cell-based experiments without inhibitors.

The subject of experiment [1] is PAD4. Briefly: Trypsin-coupled fluorogenic citrullination assay of ACC substrates with recombinant PAD4. It is filed as biochemical, human. As to conditions: for selectivity for PAD4 over PAD2: comparison of citrullination by PAD4 and PAD2, 37.5-300 nM enzyme; for citrullination of substrate by PAD4: substrate 10 μM, PAD4 37.5-300 nM, 15 min preincubation, then trypsin 5 nM, ACC fluorescence ex 355/em 460 nm, pH 7.2, 5 mM CaCl2, triplicate. How it is done:
(§1) All kinetic studies were conducted using an fMax fluorescence plate reader (Molecular Devices) operating in the fluorescence kinetic mode with 96- or 384-well plates. The fluorescence of ACC was monitored at excitation and emission wavelengths of 355 and 460 nm, respectively. The assay buffers for PADs and trypsin consisted of 100 mM TRIS-HCl, 10 mM NaCl, 5 mM CaCl2, and 5 mM DTT (pH 7.2). All experiments, including library screening and substrate kinetics, were repeated at least three times and the average values were reported. Kinetic data were analyzed using GraphPad Prism software (version 10.2.0).
(§2) Substrate screening for PAD2 and PAD4 was performed at a final substrate concentration of 10 μM, as described in “PAD substrate specificity profiling section”. PAD2 and PAD4 were tested across a concentration range of 37.5 nM to 300 nM, whereas the trypsin concentration was 5 nM. Briefly, each substrate was preincubated with the specified concentration of PAD in a 50 μL reaction volume (or in 50 μL of buffer for PAD-untreated control) for 15 min, after which 50 μL of trypsin was added to the reaction wells. The hydrolysis of Arg-containing substrates by trypsin was monitored over time. The percentage of substrate citrullination was calculated by comparing the extent of trypsin-mediated cleavage of untreated substrates with that of substrates preincubated with PAD. Each assay was performed in triplicate, and the resulting citrullination percentages are presented graphically. The standard deviation of each data point was less than 15%.

The test system of the next experiment is PAD2. The experiment can be described thus: Trypsin-coupled fluorogenic citrullination assay of ACC substrates with recombinant PAD2. It is filed as biochemical, human. To be noted: for citrullination of substrate by PAD2: substrate 10 μM, PAD2 37.5-300 nM (effective at 150-300 nM), 15 min preincubation, then trypsin 5 nM, ACC fluorescence ex 355/em 460 nm, pH 7.2, 5 mM CaCl2, triplicate; for selectivity for PAD2 over PAD4: comparison of citrullination by PAD2 and PAD4, 37.5-300 nM enzyme. How it is done:
as §1, §2

The subject of experiment [2] is PMA/LPS-treated THP-1 cells. The experiment can be described thus: Western blot of GSDMD and IL-1β processing after DAMP treatment. It is filed as cell-based, human. The method, then:
THP-1 cells were seeded and stimulated with PMA and LPS, as described in “Protein analysis of PMA-differentiated THP-1 cells” section. After stimulation, vimentin, citrullinated vimentin, or their cleavage products-generated by caspase-3 or calpain-1 digestion were added to the cells, which were then incubated for an additional 48 h. Following incubation, lactate dehydrogenase (LDH) activity in the supernatant was measured using the CytoTox 96 Non-Radioactive Cytotoxicity Assay (G1718) as an indicator of membrane disruption, according to the manufacturer’s protocol. Cytotoxicity was calculated as the percentage of LDH released from the treated samples relative to the LDH release induced by the lysis buffer and normalized to the spontaneous release from the control cells. Absorbance was measured at 490 nm using a spectrophotometric microplate reader (Gemini XPS, Molecular Devices). All experiments were independently performed in triplicate. Statistical analyses were performed using GraphPad Prism software (GraphPad Software, Inc., La Jolla, CA, USA). One-way ANOVA followed by Tukey’s multiple comparisons posthoc test was used to determine statistical significance. For Western blot analysis, proteins from the cell lysates were prepared as described in “Protein analysis of PMA-differentiated THP-1 cells”. To isolate proteins from the supernatant, 1 mL of the sample was mixed with 0.5 mL of 30% trichloroacetic acid (TCA) at room temperature and incubated on ice for 30 min. The mixture was centrifuged at 12,000 × g for 20 min at 4 °C. The supernatant was discarded, and the pellet was washed with 100 μL of 10% TCA, followed by centrifugation. The pellet was then washed with 300 μL of acetone, centrifuged again, and allowed to dry completely. The remaining residues were dissolved in SDS-PAGE loading buffer under reducing conditions. Proteins of interest were detected using primary antibodies against GSDMD and interleukin-1β (IL-1β), followed by secondary antirabbit antibodies conjugated with Alexa Fluor 800. Fluorescence signals were visualized using an Azure Biosystems Sapphire RGB-NIR biomolecular imager. Ponceau S staining was used as a loading control to verify equal protein loading in the SDS-PAGE.
In general terms: A western blot detects proteins with antibodies after separation by electrophoresis.

Experiment [3] relates to PAD4. The experiment can be described thus: Vimentin citrullination assay (Western blot). It is filed as biochemical, human. As to conditions: recombinant vimentin 80 μg, 100 nM PAD4, 5-60 min. How it is done:
Recombinant vimentin (80 μg) was incubated with 100 nM PAD4 for varying durations (5–60 min). Following incubation, the samples were subjected to SDS-PAGE, and the proteins were subsequently transferred onto a nitrocellulose membrane. Western blot analysis was performed using antivimentin and anticitrullinated vimentin antibodies, followed by a secondary antibody conjugated to Alexa Fluor 800 to assess the time-dependent decrease in native vimentin levels and the corresponding increase in citrullinated vimentin levels. Subsequently, both native and citrullinated vimentin were incubated with either human recombinant caspase-3 (20 nM) or calpain-1 (10 nM) for 30 min. After incubation, the samples were analyzed by SDS-PAGE followed by colloidal Coomassie dye G-250 (Thermo, 24590) staining.

Non-standard residues stand in square brackets, D forms with d. *: point of attachment. Phe(3-I) = N[C@@H](Cc1cccc(I)c1)C(=O)O; ACC = NC(=O)Cc1cc(=O)oc2cc(N*)ccc12; hCha = N[C@@H](CCC1CCCCC1)C(=O)O; hPhe = N[C@@H](CCc1ccccc1)C(=O)O; 3Pal = N[C@@H](Cc1cccnc1)C(=O)O; OBn = c1ccc(CO*)cc1

Regarding `CCCC[C@@H](C=O)NC(=O)[C@H](CC(C)C)NC(=O)OCc1ccccc1` [calpeptin], in the experiment on THP-1 cells, the GSDMD cleavage result was “cleavage of GSDMD” and the “caspase-1 processing to p10 fragment” value was “processed into its active 10 kDa fragment”.

Regarding “Ac-D(OBn)[dY]DR-{ACC} (SMILES CC(=O)N[C@@H](CC(=O)OCc1ccccc1)C(=O)N[C@H](Cc1ccc(O)cc1)C(=O)N[C@@H](CC(=O)O)C(=O)N[C@@H](CCCNC(=N)N)C(=O)Nc1ccc2c(CC(N)=O)cc(=O)oc2c1) [(4)-NH-2]”, in the experiment with PAD4 [1], the “selectivity for PAD4 over PAD2” value was “most selective” and the “citrullination of substrate by PAD4” value is listed as “efficiently processed”. Besides, in the experiment with PAD2, the “citrullination of substrate by PAD2” value is “poorly recognized”.

As to `CCCCCCCCCCCCCC(=O)O[C@@H]1[C@@H](C)[C@@]2(O)[C@@H](C=C(CO)C[C@]3(O)C(=O)C(C)=C[C@@H]23)[C@@H]2C(C)(C)[C@]12OC(C)=O` [PMA, phorbol 12-myristate 13-acetate], in the experiment on THP-1 cells (PMA 1-100 nM, 24 h), the “GSDMD and NLRP3 protein levels” value is “downregulating”; the vimentin protein level result is given as “dose-dependent upregulation”.

For the compound `CCO[C@@H]1OC(=O)C[C@@H]1NC(=O)[C@@H]1CCCN1C(=O)[C@@H](NC(=O)c1ccc(N)c(Cl)c1)C(C)(C)C` [VX-765], in the experiment on THP-1 cells, the “caspase-1 processing to p10 fragment” value was “prevented”; the “vimentin and GSDMD protein levels” value is recorded as “marked downregulation”.

As for “vimentin: Recombinant vimentin, purchased from Biotechne (NBP2-35139)”, the pro-IL-1β processing result in experiment [2] is given as “no cleavage”. Besides, in the experiment on PAD4 [3], the “citrullination of vimentin by PAD4” value is on record as “efficient citrullination”.

On to “citrullinated vimentin: PAD4-mediated citrullinated vimentin”, for which the pro-IL-1β processing result in experiment [2] is given as “no cleavage”.

Turning to `CO[C@@H]1C[C@@H](C[C@H]2CC[C@H](C)[C@H]([C@@H](C)C(=O)O)O2)O[C@]2(O[C@](C)([C@H]3CC[C@@](C)([C@@H]4O[C@@H]([C@H]5O[C@@](O)(CO)[C@H](C)C[C@@H]5C)C[C@@H]4C)O3)C[C@H]2C)[C@@H]1C` [nigericin, reference compound], in experiment [2], the GSDMD processing fragment entry is on record as “p31 fragment” and the pro-IL-1β processing entry was “activation of pro-interleukin-1β”.

For the compound `O=C(O)CN(CC(=O)O)c1ccccc1OCCOc1ccccc1N(CC(=O)O)CC(=O)O` [BAPTA], in the experiment with THP-1 cells, the GSDMD cleavage result is listed as “cleavage of GSDMD” and the “caspase-1 processing to p10 fragment” value is reported as “processed into its active 10 kDa fragment”.

Take “Ac-NV[hCha]R-{ACC} (SMILES CC(=O)N[C@@H](CC(N)=O)C(=O)N[C@H](C(=O)N[C@@H](CCC1CCCCC1)C(=O)N[C@@H](CCCNC(=N)N)C(=O)Nc1ccc2c(CC(N)=O)cc(=O)oc2c1)C(C)C) [(2)-NH-8]”: the “citrullination of substrate by PAD4” value in the experiment with PAD4 [1] is recorded as “only minor processing”. Besides, in the experiment on PAD2, the “selectivity for PAD2 over PAD4” value was “most selective” and the “citrullination of substrate by PAD2” value is “higher reactivity”.

For the compound “Ac-[Phe(3-I)][3Pal]DR-{ACC} (SMILES CC(=O)N[C@@H](Cc1cccc(I)c1)C(=O)N[C@@H](Cc1cccnc1)C(=O)N[C@@H](CC(=O)O)C(=O)N[C@@H](CCCNC(=N)N)C(=O)Nc1ccc2c(CC(N)=O)cc(=O)oc2c1) [(4)-NH-12]”, in the experiment on PAD4 [1], the “selectivity for PAD4 over PAD2” value was “most selective” and the “citrullination of substrate by PAD4” value was “efficiently processed”. In the experiment on PAD2, the “citrullination of substrate by PAD2” value is “poorly recognized”.

`COC(=O)CC[C@H](NC(=O)[C@H](CC(=O)OC)NC(=O)OCc1ccccc1)C(=O)N[C@H](C(=O)N[C@@H](CC(=O)OC)C(=O)CF)C(C)C` [Z-DEVD-fmk, Z-DEVD-FMK]: in the experiment with THP-1 cells, the “caspase-1 processing to p10 fragment” value is recorded as “prevented”; the “vimentin and GSDMD protein levels” value was “marked downregulation”.

For the compound “Ac-D(OBn)[hCha]DR-{ACC} (SMILES CC(=O)N[C@@H](CC(=O)OCc1ccccc1)C(=O)N[C@@H](CCC1CCCCC1)C(=O)N[C@@H](CC(=O)O)C(=O)N[C@@H](CCCNC(=N)N)C(=O)Nc1ccc2c(CC(N)=O)cc(=O)oc2c1) [(4)-NH-11]”, in the experiment with PAD2, the “citrullination of substrate by PAD2” value is “some degree of cross-reactivity”.

For “Ac-[dY]A[hPhe]R-{ACC} (SMILES CC(=O)N[C@H](Cc1ccc(O)cc1)C(=O)N[C@@H](C)C(=O)N[C@@H](CCc1ccccc1)C(=O)N[C@@H](CCCNC(=N)N)C(=O)Nc1ccc2c(CC(N)=O)cc(=O)oc2c1) [(2)-NH-7]”, in the experiment with PAD4 [1], the “citrullination of substrate by PAD4” value is listed as “only minor processing”. Besides, in the experiment on PAD2, the “selectivity for PAD2 over PAD4” value is given as “most selective” and the “citrullination of substrate by PAD2” value was “higher reactivity”.

Turning to “Ac-[Phe(3-I)][hCha]DR-{ACC} (SMILES CC(=O)N[C@@H](Cc1cccc(I)c1)C(=O)N[C@@H](CCC1CCCCC1)C(=O)N[C@@H](CC(=O)O)C(=O)N[C@@H](CCCNC(=N)N)C(=O)Nc1ccc2c(CC(N)=O)cc(=O)oc2c1) [(4)-NH-13]”, in the experiment on PAD2, the “citrullination of substrate by PAD2” value is on record as “some degree of cross-reactivity”.

On to `N=C(CCl)NCCC[C@H](NC(=O)c1ccccc1)C(N)=O` [Cl-amidine, N-α-benzoyl-N5-(2-chloro-1-iminoethyl)-L-Orn amide], for which, in the experiment on THP-1 cells, the “caspase-1 processing to p10 fragment” value was “prevented”; the “vimentin and GSDMD protein levels” value was “marked downregulation”.
